From paper PMC10179075 (International Journal of Molecular Sciences, 2023)
Substitutions are numbered along the chain they refer to. Read-outs that look alike come from different tables or passages of the source.

Columns and labels:
[1] = tested on: wild type (WT) E. indica; assay: Shikimate accumulation assay, WT population; format: in vivo, Eleusine indica; conditions: 1800 g a.e. ha^−1 (7.1 mM) glyphosate, seven DAT
Method: Leaf tissue samples collected on 1, 3, 5, and 7 DAT were finely ground in liquid nitrogen, added to 1.0 mL of 0.25 mol L^−1 cold HCl, and centrifuged at 12,000 rpm for 30 min. Supernatants (0.2 mL) were incubated with 2 mL of 1% periodic acid for 3 h at room temperature. Thereafter, 2 mL of 1 mol L^−1 NaOH and 1.2 mL of 0.1 mol L^−1 glycine were added, then the optical density of 0.2 mL/well was determined in 96-well plates at 380 nm using a Tecan Infinite 200 Pro plate reader (Tecan Group Ltd., Männedorf, Switzerland). The results for all samples were compared with a standard curve of 0.1–400.0 μg shikimate and are expressed as μg of shikimate g^−1 fresh tissue. This experiment was repeated twice.

[2] = biological target: T1, natural (wild type) E. indica EPSPS (EiEPSPS), recombinant expressed in E. coli (Eleusine indica, UniProt Q95AK0); assay: ForteBio Octet binding kinetics, wild type EPSPS
T1 sequence (Q95AK0 43-445): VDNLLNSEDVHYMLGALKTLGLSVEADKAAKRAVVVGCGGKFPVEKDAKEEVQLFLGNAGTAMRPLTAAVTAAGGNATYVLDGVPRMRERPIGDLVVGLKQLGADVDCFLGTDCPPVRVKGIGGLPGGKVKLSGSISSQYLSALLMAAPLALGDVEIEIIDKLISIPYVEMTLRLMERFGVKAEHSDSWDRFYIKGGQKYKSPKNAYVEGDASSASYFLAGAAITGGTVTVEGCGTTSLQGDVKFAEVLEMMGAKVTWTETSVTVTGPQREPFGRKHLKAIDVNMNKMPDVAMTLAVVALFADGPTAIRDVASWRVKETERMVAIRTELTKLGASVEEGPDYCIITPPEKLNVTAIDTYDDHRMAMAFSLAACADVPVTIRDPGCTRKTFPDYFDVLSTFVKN
Method: (§1) Target EPSPS genes with different mutations were amplified through PCR using primers (Supplementary Table S4) and the synthesised cDNA, then cloned into the BamHI and HindIII cleavage sites of the pET-28a expression vector (New England Biolabs Inc., Ipswich, MA, USA). After DNA sequencing, the pET-28a plasmid (Thermo Fisher Scientific Inc., Waltham MA, USA) containing the target genes was transformed into BL21 (DE3) cells (Thermo Fisher Scientific Inc.). Selected clones were cultured in Luria-Bertani medium. Cells containing target genes that had grown to an OD600 of 0.5 were induced with […] IPTG (0487; Amresco LLC, Solon, OH, USA) at 37 °C for 4 h. The cells were then pelleted through centrifugation at 10,000× g for 10 min and resuspended in 50 mM Tris-HCl and 150 mM NaCl, pH 7.4 (buffer A). The suspension was sonicated and centrifuged at 12,000× g for 30 min, the supernatant was filtered through a 0.22 µm membrane and passed through a HiTrap His column (10318950; Cytiva, Global Life Sciences Solutions USA, LLC., Marlborough, MA, USA). […] Target protein concentrations were determined using the Bradford method (500-0001) with Dye Reagent (both from Bio-Rad Laboratories Inc., Hercules, CA, USA).
To prevent primary amines reducing the biotinylation ratio, the EPSPS and mutations were exchanged with PBS buffer using a PD10 desalting column (17085101; Cytiva, Global Life Sciences Solutions USA, LLC.) as described by the manufacturer. The proteins were then concentrated using an ultrafilter (Merck KGaA, Darmstadt, Germany), then the concentrations were determined, as described above. […] A mixture of protein and sulfo-NHS-LC-biotin at a molar ratio of 1:5 was incubated at 4 °C for 16 h, then free biotin molecules were removed using a PD10 desalting column and biotinylated protein concentrations were measured using the Bradford method. […]
(§2) Data for protein-small molecule binding studies and curve fitting were analysed using ForteBio Data Analysis Software v. […]

[3] = tested on: E. indica IISS population (homozygous TIPS in EPSPS); assay: Whole-plant dose-response assay, IISS population; format: in vivo, Eleusine indica; conditions: glyphosate alone, fresh weight at 21 DAT, value ± SE
Method: (§3) Plants with homozygous mutations Pro106Ser (P106S), Pro106Leu (P106L), Thr102Ile + Pro106Ser (TIPS), and WT were screened from a population with a similar background, as we previously described. […] Plants with the same confirmed genotype were cultured (bulk in isolation) and the seeds were produced and purified. The purified subpopulations were named SS, LL, IISS, and WT. […] The plants were cultured under greenhouse conditions of day and night temperatures of 30 °C and 20 °C (±2 °C), respectively, with a relative humidity of 60% ± 20%, and a 14-h photoperiod, during which LEDs provided light intensity of 300 μmol m^−2 s^−1. After thinning, eight plants per pot were maintained. […] [18]. Thereafter, P450- (10 mM piperonylbutoxide) and GST-inhibitors (3 mM 4-chloro-7-nitro-1, 2, 3-benzoxadiazole) were sprayed to exclude other non-target-site resistance mechanisms. […] Water and inhibitors were applied through control spraying (Supplementary Tables S1 and S3). The fresh weight of the fresh aboveground tissues was measured at 21 DAT. Whole-plant assays were repeated twice in a completely randomised design.
(§4) Data from the whole-plant assays and emerged seedlings were analysed through nonlinear regression using a log-logistic model: y = y0 + a/[1 + (x/x0)^b] in SigmaPlot 12.0 (Systat Software, San Jose, CA, USA).

[4] = tested on: E. indica SS population (homozygous P106S in EPSPS); assay: Whole-plant dose-response assay, SS population; format: in vivo, Eleusine indica; conditions: glyphosate alone, fresh weight at 21 DAT, value ± SE
Method: as §3, §4

[5] = biological target: E. indica EPSPS Pro106Ser (P106S) mutant, recombinant expressed in E. coli (Eleusine indica, UniProt Q95AK0, P107S); assay: biochemical; format: binding
Chain of E. indica EPSPS Pro106Ser (P106S) mutant, recombinant expressed in E. coli (Q95AK0 entry or part of it P107S): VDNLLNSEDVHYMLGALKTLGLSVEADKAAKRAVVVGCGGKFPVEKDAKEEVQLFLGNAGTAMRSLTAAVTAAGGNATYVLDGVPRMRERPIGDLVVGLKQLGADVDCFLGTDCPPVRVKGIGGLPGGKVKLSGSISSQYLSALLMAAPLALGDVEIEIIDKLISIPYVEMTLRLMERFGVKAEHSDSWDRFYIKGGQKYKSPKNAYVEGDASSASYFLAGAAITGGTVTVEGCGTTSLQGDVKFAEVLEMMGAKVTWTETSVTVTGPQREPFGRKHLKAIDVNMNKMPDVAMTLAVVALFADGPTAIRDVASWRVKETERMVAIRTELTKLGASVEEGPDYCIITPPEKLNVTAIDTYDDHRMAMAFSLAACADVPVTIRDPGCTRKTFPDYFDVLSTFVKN
Method: (§5) Target EPSPS genes with different mutations were amplified through PCR using primers (Supplementary Table S4) and the synthesised cDNA, then cloned into the BamHI and HindIII cleavage sites of the pET-28a expression vector (New England Biolabs Inc., Ipswich, MA, USA). After DNA sequencing, the pET-28a plasmid (Thermo Fisher Scientific Inc., Waltham MA, USA) containing the target genes was transformed into BL21 (DE3) cells (Thermo Fisher Scientific Inc.). Selected clones were cultured in Luria-Bertani medium. Cells containing target genes that had grown to an OD600 of 0.5 were induced with […] IPTG (0487; Amresco LLC, Solon, OH, USA) at 37 °C for 4 h. The cells were then pelleted through centrifugation at 10,000× g for 10 min and resuspended in 50 mM Tris-HCl and 150 mM NaCl, pH 7.4 (buffer A). The suspension was sonicated and centrifuged at 12,000× g for 30 min, the supernatant was filtered through a 0.22 µm membrane and passed through a HiTrap His column (10318950; Cytiva, Global Life Sciences Solutions USA, LLC., Marlborough, MA, USA). Target proteins were eluted with 50 mM Tris-HCl, 150 mM NaCl, 500 mM imidazole, pH 7.4 (buffer B), resolved through SDS-PAGE, and identified through MALDI-TOF mass spectrometry. Target protein concentrations were determined using the Bradford method (500-0001) with Dye Reagent (both from Bio-Rad Laboratories Inc., Hercules, CA, USA).
(§6) To prevent primary amines reducing the biotinylation ratio, the EPSPS and mutations were exchanged with PBS buffer using a PD10 desalting column (17085101; Cytiva, Global Life Sciences Solutions USA, LLC.) as described by the manufacturer. The proteins were then concentrated using an ultrafilter (Merck KGaA, Darmstadt, Germany), then the concentrations were determined, as described above. The proteins were biotinylated using the EZ-Link™ Sulfo-NHS-LC-biotinylation kit (21435; Thermo Fisher Scientific Inc.) as described by the manufacturer. A mixture of protein and sulfo-NHS-LC-biotin at a molar ratio of 1:5 was incubated at 4 °C for 16 h, then free biotin molecules were removed using a PD10 desalting column and biotinylated protein concentrations were measured using the Bradford method.
(§7) We used a ForteBio Octet 96 with high-capacity Super Streptavidin (SSA) biosensors (18-5057; Sartorius Stedim Biotech GmbH, Göttingen, Germany) to study the protein-small molecule binding, and to derive the relevant kinetic data, as well as the affinity constants. The SSA sensors were activated in 50 mM HEPES buffer (pH 7.5) containing 0.02% Tween 20 (v/v) for 10 min, then biotinylated proteins were loaded onto them online for 2 min. Thereafter, the sensors were quenched with 2 μg mL^−1 of biocytin (B1592 Thermo Fisher Scientific Inc.) for 60 s. […] To obtain accurate interaction kinetics, a reference well (containing only buffer) and a reference biosensor were included in the assay for double subtraction analysis.
(§8) Data for protein-small molecule binding studies and curve fitting were analysed using ForteBio Data Analysis Software v. 9.0. Dissociation constants (KD) indicating binding affinity for protein-small molecules were derived by determining Kon and Koff (association and disassociation rate constants, respectively); KD = Koff/Kon.

[6] = biological target: E. indica EPSPS Thr102Ile + Pro106Ser (TIPS) mutant, recombinant expressed in E. coli (Eleusine indica, UniProt Q95AK0, P107S/T103I); assay: biochemical; format: binding
Chain of E. indica EPSPS Thr102Ile + Pro106Ser (TIPS) mutant, recombinant expressed in E. coli (Q95AK0 entry or part of it T103I/P107S): as the sequence (Q95AK0 entry or part of it P107S) above, with T61I counted along it
Method: as §5, §6, §7, §8

[7] = biological target: E. indica EPSPS Pro106Leu (P106L) mutant, recombinant expressed in E. coli (Eleusine indica, UniProt Q95AK0, P107L); assay: biochemical; format: binding
Chain of E. indica EPSPS Pro106Leu (P106L) mutant, recombinant expressed in E. coli (Q95AK0 entry or part of it P107L): as the sequence (Q95AK0 entry or part of it P107S) above, with S65L counted along it
Method: as §5, §6, §7, §8

[8] = tested on: E. indica LL population (homozygous P106L in EPSPS); assay: Whole-plant dose-response assay, LL population; format: in vivo, Eleusine indica; conditions: glyphosate alone, fresh weight at 21 DAT, value ± SE
Method: as §3, §4

[9] = biological target: T2, His-tagged recombinant EiEPSPS, Pro106Ser (SS) (Eleusine indica, UniProt Q95AK0, P107S); assay: EPSPS Michaelis-Menten kinetics, Pro106Ser; format: biochemical; conditions: P106S mutant vs natural EPSPS
T2 sequence (Q95AK0 43-445 P107S): T1 sequence (Q95AK0 43-445) with P65S
Excerpt: (§9) Figure 2 Characteristics of EPSPS with different mutations (WT, P106S, P106L, and TIPS) from purified enzyme extracts of Escherichia coli variants. […] Reactions were detected as phosphate concentrations based on a standard curve (y = 97.049x − 0.4245, R^2 = 0.99). This experiment was repeated twice with three biological replicates.
as §1, with “A).” for “A). The suspension was sonicated and centrifuged at 12,000× g for 30 min, the supernatant was filtered through a 0.22 µm membrane and passed through a HiTrap His column (10318950; Cytiva, Global Life Sciences Solutions USA, LLC., Marlborough, MA, USA).”

[10] = biological target: T3, His-tagged recombinant EiEPSPS, Thr102Ile + Pro106Ser (IISS) (Eleusine indica, UniProt Q95AK0, P107S/T103I); assay: EPSPS Michaelis-Menten kinetics, Thr102Ile + Pro106Ser; format: biochemical; conditions: TIPS mutant vs natural EPSPS
T3 sequence (Q95AK0 43-445 T103I/P107S): T1 sequence (Q95AK0 43-445) with T61I, P65S
Excerpt: as §9
as §1, with “A).” for “A). The suspension was sonicated and centrifuged at 12,000× g for 30 min, the supernatant was filtered through a 0.22 µm membrane and passed through a HiTrap His column (10318950; Cytiva, Global Life Sciences Solutions USA, LLC., Marlborough, MA, USA).”

[11] = biological target: T4, His-tagged recombinant EiEPSPS, Pro106Leu (LL) (Eleusine indica, UniProt Q95AK0, P107L); assay: EPSPS Michaelis-Menten kinetics, Pro106Leu; format: biochemical; conditions: P106L mutant vs natural EPSPS
T4 sequence (Q95AK0 43-445 P107L): T1 sequence (Q95AK0 43-445) with P65L
Excerpt: as §9
as §1, with “A).” for “A). The suspension was sonicated and centrifuged at 12,000× g for 30 min, the supernatant was filtered through a 0.22 µm membrane and passed through a HiTrap His column (10318950; Cytiva, Global Life Sciences Solutions USA, LLC., Marlborough, MA, USA).”

[12] = biological target: E. indica EPSPS enzymes (WT, P106L, P106S, TIPS); assay: ForteBio Octet binding, range over the EPSPS enzymes; design: species or system Eleusine indica
Method: as §1, with “h.” for “h. The cells were then pelleted through centrifugation at 10,000× g for 10 min and resuspended in 50 mM Tris-HCl and 150 mM NaCl, pH 7.4 (buffer A). The suspension was sonicated and centrifuged at 12,000× g for 30 min, the supernatant was filtered through a 0.22 µm membrane and passed through a HiTrap His column (10318950; Cytiva, Global Life Sciences Solutions USA, LLC., Marlborough, MA, USA).”
To prevent primary amines reducing the biotinylation ratio, the EPSPS and mutations were exchanged with PBS buffer using a PD10 desalting column (17085101; Cytiva, Global Life Sciences Solutions USA, LLC.) as described by the manufacturer. The proteins were then concentrated using an ultrafilter (Merck KGaA, Darmstadt, Germany), then the concentrations were determined, as described above. […]
as §2

[13] = pH 7.5, read-out: Kon, association rate constant

Structure (SMILES)	shikimate accumulation in leaf tissues [1] [µg/g]	Kd [2] [µM]	x0, herbicide dose required for 50% plant growth reduction (GR50) [3] [g a.e. ha^-1]	x0, herbicide dose required for 50% plant growth reduction (GR50) [4] [g a.e. ha^-1]	Kd [5] [µM]	Kd [6] [µM]	Kd [7] [µM]	x0, herbicide dose required for 50% plant growth reduction (GR50) [8] [g a.e. ha^-1]	Km (PEP) fold relative to natural EPSPS [9] [fold]	Km (PEP) fold relative to natural EPSPS [10] [fold]	Km (PEP) fold relative to natural EPSPS [11] [fold]	Kd [12] [µM]	Kd ([2]; Wild type EPSPS, Octet SSA biosensors, HEPES pH 7.5, read-out: KD, dissociation constant (KD = Koff/Kon)) [µM]	kon ([2]; Wild type EPSPS, Octet SSA biosensors, HEPES pH 7.5, read-out: Kon, association rate constant) [M⁻¹ s⁻¹]	kon [5, 13] [M⁻¹ s⁻¹]	kon ([6]; Thr102Ile + Pro106Ser EPSPS, Octet SSA biosensors, HEPES pH 7.5, read-out: Kon, association rate constant) [M⁻¹ s⁻¹]	kon [7, 13] [M⁻¹ s⁻¹]
O=C(O)CNCP(=O)(O)O [Glyphosate, glyphosate]	366.4	58	3272.9 ± 164.1	540.5 ± 25.6	25	23	28	707.2 ± 122.1	–	–	–	–	–	–	–	–	–
C=C(OP(=O)(O)O)C(=O)O [PEP, phosphoenolpyruvate]	–	–	–	–	1200	2000	1100	–	0.7	4.1	2.4	1100 to 3100	3100	8	31.8	33	31.3
